For four molecules, MIC results are on record in ChEMBL document CHEMBL1142582, “Lignans and their degraded derivatives from Sarcostemma acidum” (2005).

In brackets after ≈: the same amount, converted by molar mass. Some results are limits rather than exact numbers.

What all share (format): functional
Test [1] concerns Staphylococcus epidermidis. Kind of test: Antimicrobial activity against Staphylococcus epidermidis ATCC 12228 after 18 hrs by broth microdilution test. The conditions noted are these: ATCC 12228, 18 h. For orientation: In broth dilution the organism is exposed to a series of concentrations in liquid medium.
For another test, the system named is Staphylococcus aureus. Kind of test: Antimicrobial activity against Staphylococcus aureus ATCC 25923 after 18 hrs by broth microdilution test. Conditions: ATCC 25923, 18 h.
The next test concerns Candida albicans. Kind of test: Antimicrobial activity against Candida albicans ATCC 1600 after 48 hrs by broth microdilution test. Conditions: ATCC 1600, 48 h.

A word on the MIC: it is the lowest concentration found to suppress growth. High values mean a less susceptible organism, low ones a more susceptible organism. On to `COc1cc([C@@H]2c3cc(OC)c(O)c(OC)c3C=C(C)[C@H]2C)cc(OC)c1O` (relative stereo) [SACIDUMLIGNAN B], for which the MIC (in test [1]; against Staphylococcus aureus; with Candida albicans) was above 130 µM throughout.

With `C=CCc1ccc(O)c(-c2cc(CC=C)ccc2O)c1` [MAGNOLOL], the MIC in test [1] is 23 µM (≈ 6.13 µg/mL); in the test with Staphylococcus aureus, 47 µM (≈ 12.5 µg/mL).

As for `COC(=O)C1=CC[C@@]23CC[C@@H]([C@@](C)(/C=C/C=C(\C)C(=O)O)OC2=O)[C@@]3(OC(C)=O)CC1` [PSEUDOLARIC ACID B], in the test on Candida albicans, the MIC came to 14 µM (≈ 6.05 µg/mL).

For `COc1cc(-c2c(C)c(C)cc3c(OC)c(O)c(OC)cc23)cc(OC)c1O` [SACIDUMLIGNAN A], the MIC in test [1] is 65 µM (≈ 25 µg/mL); in the test on Staphylococcus aureus, 130 µM (≈ 50 µg/mL); against Candida albicans it was above 130 µM.
